For ten compounds, Ki results are on record in ChEMBL document CHEMBL1133265 (Bioorg Med Chem Lett, 2000).

Molecules are shown by their SMILES.

What is called Ki is a dissociation constant, usually derived from enzyme kinetics or from competition with a known ligand. Read a high Ki as weaker binding.

The target in assay [1] is Norepinephrine transporter (Rattus norvegicus, UniProt Q9WTR4). In words: Compound has been evaluated for its affinity towards Norepinephrine transporter by displacing the radio isotope [3H]nisoxetine from rat forebrain.
Chain of Norepinephrine transporter (Q9WTR4 whole entry): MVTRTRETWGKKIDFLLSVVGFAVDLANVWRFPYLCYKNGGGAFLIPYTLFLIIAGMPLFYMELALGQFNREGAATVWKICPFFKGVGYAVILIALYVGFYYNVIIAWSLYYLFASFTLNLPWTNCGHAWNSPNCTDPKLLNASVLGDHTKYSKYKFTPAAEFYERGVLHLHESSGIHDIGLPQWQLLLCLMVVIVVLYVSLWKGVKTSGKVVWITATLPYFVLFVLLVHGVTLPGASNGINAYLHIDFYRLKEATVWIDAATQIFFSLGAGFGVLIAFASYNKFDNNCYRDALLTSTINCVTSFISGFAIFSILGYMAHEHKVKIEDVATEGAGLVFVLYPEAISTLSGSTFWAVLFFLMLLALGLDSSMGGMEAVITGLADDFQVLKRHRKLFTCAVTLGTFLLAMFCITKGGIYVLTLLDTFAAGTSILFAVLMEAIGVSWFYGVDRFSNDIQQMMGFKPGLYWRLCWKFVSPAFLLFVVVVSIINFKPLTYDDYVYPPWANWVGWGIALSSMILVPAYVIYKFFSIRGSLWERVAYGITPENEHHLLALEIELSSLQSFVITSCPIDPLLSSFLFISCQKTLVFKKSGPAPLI
Assay [2] concerns the target Sodium-dependent serotonin transporter (Rattus norvegicus, UniProt P31652). In words: Affinity for Serotonin transporter by displacing [3H]paroxetine from rat forebrain.
For assay [3], the target named is Sodium-dependent dopamine transporter (Rattus norvegicus, UniProt P23977). Nature of the assay: Displacement of [3H]GBR-12935 from rat forebrain Dopamine transporter.
Chain of Sodium-dependent dopamine transporter (P23977 whole entry): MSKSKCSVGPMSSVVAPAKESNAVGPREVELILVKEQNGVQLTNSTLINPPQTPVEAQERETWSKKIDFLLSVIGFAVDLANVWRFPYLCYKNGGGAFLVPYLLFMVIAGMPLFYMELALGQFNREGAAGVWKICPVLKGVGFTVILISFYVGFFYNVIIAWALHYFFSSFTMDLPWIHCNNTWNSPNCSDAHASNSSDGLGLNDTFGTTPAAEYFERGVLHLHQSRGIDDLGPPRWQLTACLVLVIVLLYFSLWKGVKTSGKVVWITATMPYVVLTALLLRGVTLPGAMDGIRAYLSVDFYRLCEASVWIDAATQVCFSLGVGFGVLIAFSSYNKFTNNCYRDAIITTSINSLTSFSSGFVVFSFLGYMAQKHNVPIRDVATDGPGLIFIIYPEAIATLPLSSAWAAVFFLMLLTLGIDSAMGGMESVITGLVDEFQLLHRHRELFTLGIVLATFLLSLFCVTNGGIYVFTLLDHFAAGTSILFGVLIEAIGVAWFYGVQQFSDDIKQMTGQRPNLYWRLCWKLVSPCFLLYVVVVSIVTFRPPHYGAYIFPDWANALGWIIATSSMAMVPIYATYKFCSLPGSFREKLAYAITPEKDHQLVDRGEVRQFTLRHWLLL

Chain of Sodium-dependent serotonin transporter (P31652 whole entry): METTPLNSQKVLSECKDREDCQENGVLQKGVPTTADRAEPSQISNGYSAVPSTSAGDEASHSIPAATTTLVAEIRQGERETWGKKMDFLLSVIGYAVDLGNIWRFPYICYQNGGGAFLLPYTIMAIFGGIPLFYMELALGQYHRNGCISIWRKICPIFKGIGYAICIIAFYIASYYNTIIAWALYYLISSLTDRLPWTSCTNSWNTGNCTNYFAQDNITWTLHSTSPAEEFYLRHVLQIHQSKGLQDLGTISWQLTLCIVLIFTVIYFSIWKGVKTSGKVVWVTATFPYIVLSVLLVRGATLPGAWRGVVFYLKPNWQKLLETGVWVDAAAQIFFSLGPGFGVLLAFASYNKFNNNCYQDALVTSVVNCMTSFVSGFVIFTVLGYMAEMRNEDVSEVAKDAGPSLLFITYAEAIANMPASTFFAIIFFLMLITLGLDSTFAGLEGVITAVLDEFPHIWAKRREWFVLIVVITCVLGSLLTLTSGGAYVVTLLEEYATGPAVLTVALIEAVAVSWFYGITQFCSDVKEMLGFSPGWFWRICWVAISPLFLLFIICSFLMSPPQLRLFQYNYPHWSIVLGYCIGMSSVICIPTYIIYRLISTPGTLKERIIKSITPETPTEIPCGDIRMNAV

Compound `COC(=O)C1C(c2ccc(-c3ccc(OC)cc3)cc2)CC2CCC1N2C` (centres undefined) returned an inhibition constant Ki in assay [1] of 352 nM. In other words, the sub-micromolar range. On the same count and under the same terms, then `COC(=O)C1C(c2ccc(-c3ccccc3OC)cc2)CC2CCC1N2C` (centres undefined), with 10000 nM.

In turn, `COC(=O)C1C(c2ccc(-c3ccc([N+](=O)[O-])cc3)cc2)CC2CCC1N2C` (centres undefined) gave a Ki in assay [1] of 370 nM. On the same count and under the same terms, then `COC(=O)C1C(c2ccc(-c3cccc([N+](=O)[O-])c3)cc2)CC2CCC1N2C` (centres undefined), with 963 nM. `COC(=O)[C@@H]1C2CC[C@H](C[C@@H]1c1ccc(I)cc1)N2C`: the results for the Ki in assay [2], in assay [1] and in assay [3] were 0.46 nM, 2.8 nM and 0.96 nM, respectively. With `COC(=O)C1C(c2ccc(-c3ccccc3[N+](=O)[O-])cc2)CC2CCC1N2C` (centres undefined), the Ki in assay [2], in assay [1] and in assay [3] was over 3000 nM in each case. As for `COC(=O)C1C(c2ccc(-c3ccccc3C(C)=O)cc2)CC2CCC1N2C` (centres undefined), the Ki in assay [1] was over 20000 nM. Regarding `COC(=O)C1C(c2ccc(-c3ccc(C(C)=O)cc3)cc2)CC2CCC1N2C` (centres undefined), in assay [1], the affinity, expressed as Ki, was 754 nM. On the same count and under the same terms, under `COC(=O)C1C(c2ccc(-c3cccc(OC)c3)cc2)CC2CCC1N2C` (centres undefined) stands over 3000 nM; under `COC(=O)C1C(c2ccc(-c3cccc(C(C)=O)c3)cc2)CC2CCC1N2C` (centres undefined), over 50000 nM.
